Measurements from patent US12263248B2, “Compounds and compositions for intracellular delivery of therapeutic agents” (ModernaTX, Inc., priority 2018, dated 2025).

Experiments:
[1] = Particle size and polydispersity index of nanoparticle compositions (Zetasizer Nano ZS); format: physicochemical
In short: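 Nanoparticle compositions are diluted in 1×PBS, then size and polydispersity index are read on a Zetasizer Nano ZS instrument.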

[2] = Encapsulation efficiency of RNA (QUANT-IT RIBOGREEN RNA assay); format: physicochemical
In short: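 RiboGreen fluorescence (ex ~480, em ~520 nm) compared between intact samples and Triton X-100-lysed samples after 15 min at 37 °C in TE buffer, pH 7.5. Percent free RNA is the blank-corrected intact/disrupted ratio.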

[3] = Apparent (surface) pKa of the LNP formulation (TNS assay); format: physicochemical; settings: for pKa: Table 1A
In short: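 LNP (0.04 mg/mL mRNA) mixed with TNS reagent in 21 buffers spanning about pH 3-12, in triplicate; fluorescence plotted against pH as sigmoidal curve. Apparent pKa taken as […] curve inflection point; validated in 1× PBS and 20 mM Tris w/8% sucrose.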

luciferase (Luc) mRNA [4] = experiment: Luc expression, whole body bioluminescence after intravenous administration to mice; format: in vivo; settings: for Lipid/MC3 AUC / AUC (p/s * h): Table 3D; for AUC (p/s * h): Luc; for Total Flux 3 hours / Total Flux 6 hours / Total Flux 24 hours: mice, i.v., 0.5 mg/kg, Luc mRNA
In short: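 Luc mRNA nanoparticle formulations given intravenously to mice (n=6) at 0.5 mg/kg; whole-body bioluminescence imaged at 3, 6 and 24 h. CD-1 mice received IP D-luciferin (200 μL of 15 mg/mL) 15 min before imaging; total flux quantified by region of interest.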

[5] = Lipid clearance: lipid level in mouse liver tissue (LC-MS/MS); format: in vivo; settings: Table 3D, intravenous
luciferase (Luc) mRNA [6] = experiment: Luc expression in liver, lung, spleen and femur 6 hours after intravenous administration; format: in vivo; settings: mice, 0.5 mpk; for Total Flux Liver / Total Flux Lung / Total Flux Spleen: intravenous
In short: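 LNP-formulated mRNA given IV to mice (n=3) at 0.5 mpk; at 6 h, bioluminescence imaged ex vivo 15 min after IP D-luciferin (15 mg/mL, 200 μL), organs imaged within 25 min. Values are total flux by region of interest.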

hEPO mRNA = experiment: hEPO expression after intravenous administration to rats; format: in vivo, rat; settings: Table 19B; for Lipid/MC3 ([hEPO] ratio) / Lipid/MC3 AUC: relative to MC3; for [hEPO]: species, dose and time not given
Method: The expression of hEPO and cytokine induction in rats intravenously administered a nanoparticle composition at a dose of 2.0 mpk was measured at 6 h.
(§1) The expression of hEPO in rats intravenously administered a nanoparticle composition at a dose of 0.2 mpk or 2.0 mpk was measured at 6 hours. Table 16 summarize the ratio of hEPO expression levels using various nanoparticle compositions as compared to the hEPO expression level using MC3 formulation and the lipid levels in the liver measured 48 hours after administration, as described above. Tables 17 and 18 summarize the lipid levels in the liver and spleen measured 48 hours after administration of Compounds 28, 33, 53, and 54. Liver and spleen levels represent the average values calculated for 3 rats in each group. As is shown in Tables 17 and 18, less than 10% of Compounds 28, 33, 53, and 54 remained in the liver after 48 hours, while greater than 60% of MC3 remained.
The expression of hEPO induced by intravenous administration to rats of nanoparticle compositions at various doses was measured at 2, 4, 6, 8, 24, and 48 hour time points. FIGS. 3-6 respectively summarize the hEPO expression measured upon intravenous administration of formulations including Compounds 26, 18, 25, and MC3 to rat at various doses. The lipid levels of Compound 26 in the liver after 48 hours were about 19%.
(§2) 005781 The expression of hEPO and lipid levels in the liver and spleen in rats intravenously administered a nanoparticle composition at a dose of 0.2 mpk was measured at various time points. Compounds 18 and 25 were selected for comparison with MC3. Lipids were formulated according to the standard MC3 formulation described above. Rats were administered intravenously a single 0.2 mpk dose and expression monitored at 0.25, 0.5, 1, 2, 4, 8, 24, and 48 hours after administration.
Blood collection and analysis for hEPO. Blood was collected from mice or rats via the tail vein and hEPO concentrations were determined using a hEPO ELISA assay.

[7] = Residual lipid levels in rat liver and spleen (UPLC-MS); format: in vivo; settings: Table 19B, liver, 24 h
Method: At 48 h liver tissue was harvested for lipid quantification. To pre-weighed tissues, Milli-Q water was added (900 μL water per 100 mg tissue). Tissues were homogenized using an Omni probe homogenizer until uniform. 50 μL of samples and matrix calibration standards were aliquoted into a 96-well plate. 50 μL of blank matrix for matrix blanks and control blanks were aliquoted. 400 μL is spiking solution were manually added to all samples except matrix blanks. 400 μL of 50:50 ACN:IPA were manually added to matrix blanks. The plate was covered and the samples vortexed and centrifuged for 5 minutes at >3000 rpm. 200 μL of the samples were transferred into a clean 96-well plate for analysis. Samples were analyzed on a Waters Acquity UPLC using a Higgins Analytical Clipeus C8 column ([…], 30×2.1 mm) and a gradient of either 70-95% or 60-95% (Mobile Phase A: 5 mM ammonium formate in 50:50:1 H2O:MeOH:formic acid; Mobile Phase B: 5 mM ammonium formate in 100:1 MeOH:formic acid) over 1.3 min at 1.2 mL/min (column temperature 55° C.). Detection was based on electrospray ionization (ESI) in positive mode using a Sciex API5500 Mass Spectrometer.
as §1, §2

luciferase (Luc) mRNA [8] = experiment: Luc expression (total flux) after intramuscular administration; format: in vivo, mice; settings: Table 3H; intramuscular, Luc
In short: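 Mice given a single intramuscular dose of lipid nanoparticle formulations carrying modified Luc mRNA, alone or with H10 mRNA, at 0.001 or 0.01 mpk total. Luciferase expression recorded as total flux.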

[9] = Table 1A, lipid:DSPC:cholesterol:PEG-DMG 50:10:38.5:1.5 mol %
[10] = second column (head also says 6 h)
[11] = Table 1B, formulated with hEPO mRNA

| PDI ([1]; Table 1A) | Size (nm) [1, 9] [nm] | EE (%) ([2]; Table 1A) | pKa [3] | % Dose Remaining in Liver 6 h [5, 10] [%] | % Dose Remaining in Liver 6 h [5] [%] | PDI [1, 11] | Size (nm) [1, 11] [nm] | EE (%) [2, 11] [%] | % dose remaining, liver, 24 h [7] [%] | Compound | Lipid/MC3 AUC (luciferase (Luc) mRNA [4]; intravenous) | AUC (p/s * h) (luciferase (Luc) mRNA [4]; intravenous) | Total Flux 3 hours (luciferase (Luc) mRNA [4]) | Total Flux 6 hours (luciferase (Luc) mRNA [4]) | Total Flux 24 hours (luciferase (Luc) mRNA [4]) | Total Flux Liver (luciferase (Luc) mRNA [6]) | Total Flux Lung (luciferase (Luc) mRNA [6]) | Total Flux Spleen (luciferase (Luc) mRNA [6]) | AUC (hEPO) (hEPO mRNA) [pg·h/mL] | [hEPO] (hEPO mRNA) [pg/mL] | other results |
| --- | --- | --- | --- | --- | --- | --- | --- | --- | --- | --- | --- | --- | --- | --- | --- | --- | --- | --- | --- | --- | --- |
| 0.150 | 83.7 | 98.39 | 6.580 | <1 | <1 | – | – | – | – | CCCCCCCCCOC(=O)CCCCCCCN(CCO)CCCCCCCCCC(CCCCCCCC)CCCCCCCC [Compound 153, Nonyl 8-((2-hydroxyethyl)(10-octyloctadecyl)amino)octanoate] | 1.4 | 2.697E+011 | 1.69E+10 | 2.28E+10 | 5.10E+08 | 1.18E+09 | 6.42E+06 | 1.42E+08 | – | – | – |
| – | – | – | – | – | – | 0.35 | 90.6 | 99.4 | 0.05 | CCCCCCCCCOC(=O)CCCCCCCN(CCCCCCCC(=O)OC(CCCCCCCC)CCCCCCCC)CCCC(N)=O [Compound 243, Heptadecan-9-yl 8-((4-amino-4-oxobutyl)(8-(nonyloxy)-8-oxooctyl)amino)octanoate] | – | – | – | – | – | – | – | – | 445000 | 40600 | Lipid/MC3 ([hEPO] ratio) (hEPO mRNA): 0.02755; Lipid/MC3 AUC (hEPO mRNA): 0.02 |
| – | – | – | – | – | – | 0.15 | 82.5 | 99.3 | 0.14 | CCCCCCCCCOC(=O)CCCCCCCNCCCCCCCC(=O)OC(CCCCCCCC)CCCCCCCC [Compound 237] | – | – | – | – | – | – | – | – | 4.09e+07 | 3.47e+06 | – |
| – | – | – | – | – | – | 0.22 | 96.3 | 94.7 | 0.03 | CCCCCCCCCOC(=O)CCCCCCCN(CCO)CCCCCCC(C)OC(=O)C(CCCCCCCC)CCCCCCCC (stereo not shown) [Compound 234, 8-((2-Hydroxyethyl)(8-(nonyloxy)-8-oxooctyl)amino)octan-2-yl 2-octyldecanoate] | – | – | – | – | – | – | – | – | 5.17e+07 | 3.56e+06 | – |
| 0.093 | 61 | 96.04 | 6.275 | <1 | <1 | – | – | – | – | CCCCCCCCCOC(=O)CCCCCCCN(CCCCCCCC(=O)OC(CCCCCCCC)CCCCCCCC)C(C)CO (stereo not shown) [Compound 157, Heptadecan-9-yl 8-((1-hydroxypropan-2-yl)(8-(nonyloxy)-8-oxooctyl)amino)octanoate] | 1.3 | 2.481E+011 | 8.54E+09 | 2.22E+10 | 1.90E+08 | 2.27E+09 | 6.70E+06 | 5.15E+07 | – | – | App. pKa ([3]; Table 3F): 6.27; Novel lipid/MC3 expression ratio, 6 hr. time point, i.v. (luciferase (Luc) mRNA [4]; luciferase, intravenous, relative to MC3 formulation): 1.29; AUC (p/s * h) (luciferase (Luc) mRNA [8]): 4.68E+08 p/s * h; Lipid/MC3 AUC (luciferase (Luc) mRNA [8]): 0.80 |
| 0.200 | 192.7 | 25.49 | 6.646 | <1 | <1 | – | – | – | – | CCCCCCCCC(CCCCCCCC)OC(=O)CCCCCCCN(CCO)CCCCCCCC(=O)OCC(CCCCCCC)OC (stereo not shown) [Compound 148, Heptadecan-9-yl 8-((2-hydroxyethyl)(8-((2-methoxynonyl)oxy)-8-oxooctyl)amino)octanoate] | 2.6 | 4.965E+011 | 6.28E+10 | 3.71E+10 | 1.43E+09 | 4.39E+09 | 3.27E+07 | 2.71E+09 | – | – | Flux in the spleen (luciferase (Luc) mRNA [6]; i.v., in words): highest |
| – | – | – | – | – | – | 0.16 | 95.5 | 93.9 | 0.00 | CCCCCCCCC(CCCCCCCC)OC(=O)CCCCCCCN(CCO)CCCCCCCCCC(=O)OCCCCCCC [Compound 189, Heptyl 10-((8-(heptadecan-9-yloxy)-8-oxooctyl)(2-hydroxyethyl)amino)decanoate] | – | – | – | – | – | – | – | – | 4.35e+07 | 3.01e+06 | Lipid/MC3 AUC (hEPO mRNA): 2.35 |
| 0.082 | 63.1 | 96.72 | 6.101 | <1 | <1 | – | – | – | – | CCCCCCCCC(CCCCCCCC)OC(=O)CCCCCCCN(C)CCCCCCCCCCCC(=O)OCCCCC [Compound 150, Pentyl 12-((8-(heptadecan-9-yloxy)-8-oxooctyl)(methyl)amino)dodecanoate] | 1.4 | 2.704E+011 | 1.66E+10 | 2.31E+10 | 3.86E+08 | 1.54E+09 | 2.20E+06 | 3.43E+07 | – | – | – |
| – | – | – | – | – | – | 0.23 | 150.3 | 76.3 | 0.00 | CCCCCCCCCOC(=O)CCCCCCCN(CCO)CCCCCC(=O)OC1CCC(CCCCC)CC1 (stereo not shown) [Compound 232, Nonyl 8-((2-hydroxyethyl)(6-oxo-6-((4-pentylcyclohexyl)oxy)hexyl)amino)octanoate] | – | – | – | – | – | – | – | – | 73800 | 7024.114 | Lipid/MC3 AUC (hEPO mRNA): <0.01 |

| Compound | PDI ([1]; Table 1A) | Size (nm) [1, 9] [nm] | EE (%) ([2]; Table 1A) | pKa [3] | % Dose Remaining in Liver 6 h [5, 10] [%] | % Dose Remaining in Liver 6 h [5] [%] | PDI [1, 11] | Size (nm) [1, 11] [nm] | EE (%) [2, 11] [%] | % dose remaining, liver, 24 h [7] [%] | Lipid/MC3 AUC (luciferase (Luc) mRNA [4]; intravenous) | AUC (p/s * h) (luciferase (Luc) mRNA [4]; intravenous) | Total Flux 3 hours (luciferase (Luc) mRNA [4]) | Total Flux 6 hours (luciferase (Luc) mRNA [4]) | Total Flux 24 hours (luciferase (Luc) mRNA [4]) | Total Flux Liver (luciferase (Luc) mRNA [6]) | Total Flux Lung (luciferase (Luc) mRNA [6]) | Total Flux Spleen (luciferase (Luc) mRNA [6]) | AUC (hEPO) (hEPO mRNA) [pg·h/mL] | [hEPO] (hEPO mRNA) [pg/mL] | other results |
| --- | --- | --- | --- | --- | --- | --- | --- | --- | --- | --- | --- | --- | --- | --- | --- | --- | --- | --- | --- | --- | --- |
| CCCCCCCCC(CCCCCCCC)OC(=O)CCCCCCCN(CCO)CCCCCC(=O)OC(C)CCCCCCCCOC(C)=O (stereo not shown) [Compound 235, Heptadecan-9-yl 8-((6-((10-acetoxydecan-2-yl)oxy)-6-oxohexyl)(2-hydroxyethyl)amino)octanoate] | – | – | – | – | – | – | 0.24 | 228 | 40.9 | 0.06 | – | – | – | – | – | – | – | – | 1.71e+07 | 1.27e+06 | Lipid/MC3 ([hEPO] ratio) (hEPO mRNA): 0.8601; Lipid/MC3 AUC (hEPO mRNA): 0.93 |
